Results on eleven compounds are retold here after ChEMBL document CHEMBL1201862, “PubChem BioAssay data set” (2004).

Test systems include OVCAR-8; NCI/ADR-RES; NCI-H23; OVCAR-5; KM12; UACC-257; HOP-92; TK-10; M14; MCF7; HCC 2998; LOX IMVI; A549; BT-549; SNB-19; SK-MEL-5; OVCAR-4; COLO 205; T47D.
Holding throughout (experiment): inhibition of tumour cell growth, NCI panel, 48 h

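All cell lines were grown in 96-well plates and treated with compound for 48 hours. The concentration for 50% growth inhibition is given as GI50.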 The source made the active and inactive calls. Rule as the data show it: active = GI50 up to about 1.1 µM and inactive = higher.

Take `CC(=O)Oc1cc(OC(C)=O)c2c(c1C)CC[C@@H]1[C@@H]2CC[C@]2(C)[C@@H](OC(C)=O)CC[C@@H]12`: the GI50 was 20.2 µM (inactive) in the test with OVCAR-8; 22.5 µM (inactive) in the test on NCI/ADR-RES; 20.2 µM (inactive) in the test on NCI-H23; > 10 µM (inactive) in the test on OVCAR-5; 16.6 µM (inactive) with KM12; 17.7 µM (inactive) with UACC-257. Moreover, the GI50 in the test on HOP-92 is 20.4 µM (inactive); in the test on TK-10, 20 µM (inactive); in the test on M14 it was 19.5 µM (inactive); with MCF7 it was 19.3 µM (inactive); with HCC 2998, 20.7 µM (inactive); in the test on LOX IMVI, 18.4 µM (inactive). Also, the GI50 in the test with A549 is 18.5 µM (inactive); in the test on BT-549, 18.5 µM (inactive); with SNB-19 it was 18.6 µM (inactive); in the test on SK-MEL-5, 17.1 µM (inactive).

For the compound `CC1(C)N(OC2CCCCO2)C(c2ccccc2)C(c2ccccc2)=[N+]1[O-]` (stereo not given), the GI50 was 32.1 µM (inactive) with OVCAR-8; 49.2 µM (inactive) with NCI/ADR-RES; 49.9 µM (inactive) with NCI-H23; > 100 µM (inactive) in the test with OVCAR-5; 93.5 µM (inactive) with KM12; > 100 µM (inactive) in the test with UACC-257. Further, the GI50 is > 100 µM (inactive) in the test on OVCAR-4; > 100 µM (inactive) in the test on HOP-92; > 100 µM (inactive) in the test with TK-10; 64 µM (inactive) in the test with M14; > 100 µM (inactive) in the test with MCF7; > 100 µM (inactive) in the test on HCC 2998. Further, the GI50 in the test on LOX IMVI is > 100 µM (inactive); in the test on COLO 205, > 100 µM (inactive); with A549, 58.6 µM (inactive); with BT-549 it was > 100 µM (inactive); in the test on SNB-19, > 100 µM (inactive); with SK-MEL-5, 52.1 µM (inactive).

As for `CCOC(=O)c1c(NC(=O)c2ccc(OC)cc2)sc2c1CCCC2`, the GI50 with OVCAR-8, in the test with NCI/ADR-RES, with T47D, with NCI-H23, in the test with OVCAR-5 and in the test on KM12 was > 100 µM (inactive) each time. Further, the GI50 with UACC-257, in the test on TK-10, in the test with M14, with MCF7, in the test on COLO 205 and in the test on A549 was > 100 µM (inactive) each time. Besides, the GI50 in the test on BT-549, in the test on SNB-19 and with SK-MEL-5 was > 100 µM (inactive) throughout.

As to `S=C1CSc2c(ccc3ccccc23)N1`, the GI50 in the test with OVCAR-8, in the test on NCI/ADR-RES, in the test on T47D, with NCI-H23, with OVCAR-5 and with KM12 was > 100 µM (inactive) throughout. The GI50 with UACC-257, with OVCAR-4, in the test on TK-10, in the test on M14, in the test with MCF7 and with LOX IMVI was > 100 µM (inactive) in each case. The GI50 is > 100 µM (inactive) with COLO 205; 67.1 µM (inactive) in the test on A549; > 100 µM (inactive) in the test on BT-549; > 100 µM (inactive) in the test on SNB-19; > 100 µM (inactive) in the test with SK-MEL-5.

As for `COc1ccc([C@H](NC(=O)c2ccccc2)[C@@H](O)C(=O)O[C@H]2C[C@@]3(O)C(OC(=O)c4ccccc4)C4[C@](C)(C(=O)[C@H](OC(C)=O)C(=C2C)C3(C)C)[C@@H](O)C[C@H]2OC[C@@]42OC(C)=O)cc1` (stereo not given in full), the GI50 with OVCAR-8 is 0.00434 µM (active); in the test with NCI/ADR-RES, > 6.43 µM (inactive); in the test with NCI-H23, 0.00236 µM (active); in the test on OVCAR-5, 0.182 µM (active); in the test on KM12 it was < 0.001 µM (active); in the test on UACC-257, 0.00542 µM (active). Also, the GI50 with OVCAR-4 was 3.11 µM (inactive); in the test on HOP-92 it was 0.0586 µM (active); in the test on TK-10 it was 0.0703 µM (active); in the test on M14, 0.00604 µM (active); with MCF7 it was < 0.001 µM (active); in the test on HCC 2998, 0.00301 µM (active). The GI50 is 0.0012 µM (active) in the test with LOX IMVI; 0.00274 µM (active) in the test with COLO 205; 0.00618 µM (active) with A549; 0.0299 µM (active) in the test with BT-549; 0.0368 µM (active) with SNB-19; 0.00244 µM (active) with SK-MEL-5.

Take `O=S1(=O)OCCOS(=O)(=O)C1S(=O)(=O)c1cccc2ccccc12`: the GI50 in the test with OVCAR-8, in the test on NCI/ADR-RES, with NCI-H23, with OVCAR-5, in the test on KM12 and in the test on UACC-257 was > 100 µM (inactive) each time. The GI50 in the test with OVCAR-4 is > 100 µM (inactive); in the test on HOP-92, > 100 µM (inactive); with TK-10 it was > 10 µM (inactive); in the test on M14 it was > 100 µM (inactive); with MCF7 it was > 100 µM (inactive); in the test with HCC 2998, > 100 µM (inactive). Also, the GI50 was 46.7 µM (inactive) with LOX IMVI; > 100 µM (inactive) with COLO 205; > 100 µM (inactive) in the test with A549; > 100 µM (inactive) with BT-549; > 10 µM (inactive) in the test on SNB-19; > 100 µM (inactive) with SK-MEL-5.

For the compound `c1ccc(CCNCc2ccco2)nc1`, the GI50 in the test with OVCAR-8, in the test with NCI/ADR-RES, with NCI-H23, in the test with OVCAR-5, in the test on KM12 and with UACC-257 was > 100 µM (inactive) each time. For the same compound, the GI50 is > 100 µM (inactive) in the test with OVCAR-4; > 100 µM (inactive) in the test on HOP-92; > 100 µM (inactive) in the test with TK-10; > 100 µM (inactive) with M14; > 83.9 µM (inactive) in the test with MCF7; > 100 µM (inactive) in the test with HCC 2998. For the same compound, the GI50 in the test on LOX IMVI, in the test on COLO 205, in the test with A549, in the test with BT-549, in the test with SNB-19 and in the test with SK-MEL-5 was > 100 µM (inactive) throughout.

For the compound `CN(C)c1ccc(/C=C2\N=C(c3ccc([N+](=O)[O-])cc3)OC2=O)cc1`, the GI50 in the test on OVCAR-8 is 74.8 µM (inactive); in the test with T47D it was 48.4 µM (inactive); in the test on NCI-H23 it was 45.1 µM (inactive); with OVCAR-5, > 100 µM (inactive); with KM12, 67.5 µM (inactive); in the test on UACC-257, 57.3 µM (inactive). Also, the GI50 was > 100 µM (inactive) with OVCAR-4; 27.1 µM (inactive) in the test with HOP-92; > 100 µM (inactive) with TK-10; > 100 µM (inactive) with M14; 49.9 µM (inactive) with MCF7; 27.4 µM (inactive) in the test on HCC 2998. For the same compound, the GI50 is 23.1 µM (inactive) with LOX IMVI; 99.1 µM (inactive) in the test with COLO 205; 91 µM (inactive) in the test on A549; 71.6 µM (inactive) in the test with BT-549; 99.8 µM (inactive) in the test on SNB-19; > 100 µM (inactive) in the test on SK-MEL-5.

As for `OC(c1cccs1)c1cc2ccccc2s1` (stereo not given), the GI50 in the test on OVCAR-8, with NCI/ADR-RES, with T47D, in the test on NCI-H23, in the test with OVCAR-5 and with KM12 was > 10 µM (inactive) each time. In addition, the GI50 in the test on UACC-257, in the test with OVCAR-4, with HOP-92, with TK-10, in the test on M14 and in the test on MCF7 was > 10 µM (inactive) in each case. For the same compound, the GI50 in the test with HCC 2998, in the test on LOX IMVI, with COLO 205, in the test on A549, in the test on SNB-19 and with SK-MEL-5 was > 10 µM (inactive) each time.

As for `CC(=O)OCC1OC(SC2=N/C(=C\c3ccc(Br)s3)C(=O)N2CN2CCOCC2)C(OC(C)=O)C(OC(C)=O)C1OC(C)=O` (stereo not given), the GI50 in the test on OVCAR-8 is 16.3 µM (inactive); in the test with NCI/ADR-RES, 20.4 µM (inactive); in the test on T47D, 27.9 µM (inactive); in the test on NCI-H23 it was 12.7 µM (inactive); with OVCAR-5 it was 22.9 µM (inactive); with KM12 it was 17.2 µM (inactive). Moreover, the GI50 with UACC-257 is 16.6 µM (inactive); in the test on OVCAR-4, 29.4 µM (inactive); with TK-10 it was 16.7 µM (inactive); in the test with MCF7 it was 15.4 µM (inactive); in the test with HCC 2998, 19.8 µM (inactive); with LOX IMVI it was 12.9 µM (inactive). Besides, the GI50 with COLO 205 was 18.8 µM (inactive); in the test on BT-549 it was 14.9 µM (inactive); in the test on SNB-19, 19.9 µM (inactive); with SK-MEL-5, 19.1 µM (inactive).

For the compound `O=C(c1cccc(C(=O)c2ccc3c4c(cccc24)C(=O)N(c2ccccc2)C3=O)c1)c1ccc2c3c(cccc13)C(=O)N(c1ccccc1)C2=O`, the GI50 in the test with OVCAR-8 was > 100 µM (inactive); in the test on NCI/ADR-RES it was > 100 µM (inactive); in the test on NCI-H23, > 100 µM (inactive); with OVCAR-5, > 100 µM (inactive); with KM12, > 100 µM (inactive); in the test with UACC-257 it was 72.8 µM (inactive). Moreover, the GI50 with OVCAR-4 was > 100 µM (inactive); in the test on HOP-92, 42.3 µM (inactive); in the test with TK-10 it was 69.8 µM (inactive); with M14, > 100 µM (inactive); in the test with MCF7, 28.2 µM (inactive); with HCC 2998, > 100 µM (inactive). The GI50 is 23.3 µM (inactive) with LOX IMVI; > 100 µM (inactive) in the test with COLO 205; > 100 µM (inactive) in the test with A549; > 100 µM (inactive) with BT-549; > 100 µM (inactive) in the test on SNB-19; > 100 µM (inactive) in the test on SK-MEL-5.
